pIC50: −log10 of the molar value.
Target: ERK2 enzyme (Homo sapiens (Human), UniProt P28482)
Assay: Inhibition assay of ERK (Z'-LYTE kinase assay, Ser/Thr 3 peptide substrate)
Format: biochemical
Conditions: In vitro ERK2 enzyme, 100 μM ATP
Experimental: The inhibition of ERK activity by the compounds disclosed herein was determined using the Z′-LYTE kinase assay kit (Life Technologies) with a Ser/Thr 3 peptide substrate (Life Technologies) according to manufacturers' instructions. […] The IC50 values for the compounds were determined with 3-fold serial dilutions in duplicate. […] The final DMSO concentration in the assay was 1%. Final reaction volume was 20 μL/well in 384-well plates. Kinase reactions were conducted or 1 hour followed by the assay development reaction (1 hour) in a 20 ul/well in a 384 well plate format.

Sequence of ERK2 enzyme (P28482 whole entry): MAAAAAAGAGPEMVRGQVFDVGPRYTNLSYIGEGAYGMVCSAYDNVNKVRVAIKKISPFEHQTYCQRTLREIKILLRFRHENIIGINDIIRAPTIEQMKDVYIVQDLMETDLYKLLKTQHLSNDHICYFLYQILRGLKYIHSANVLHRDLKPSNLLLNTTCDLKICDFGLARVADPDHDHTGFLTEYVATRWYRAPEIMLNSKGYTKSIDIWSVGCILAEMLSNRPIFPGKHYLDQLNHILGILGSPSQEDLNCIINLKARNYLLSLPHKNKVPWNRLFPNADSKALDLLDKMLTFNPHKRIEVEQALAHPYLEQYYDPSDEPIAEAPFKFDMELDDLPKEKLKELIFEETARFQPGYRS

First: Cc1cc(-c2n[nH]c3cc4[nH]c(=O)n(Cc5ccccc5)c4cc23)ccn1 [Compound 19]
Second: Cc1cc(-c2n[nH]c3cc4[nH]c(=O)n(Cc5ccc(F)c(Cl)c5)c(=O)c4cc23)ccn1 [Compound 15]
The pIC50 of the first is higher: over 7.30 for the first, 6.60 to 7.30 for the second.

`COc1cccc(F)c1CN1CCC[C@@H](N2Cc3cc4c(-c5ccnc(C)c5)n[nH]c4cc3NC2=O)C1` [Compound 144] and `Cc1cc(-c2n[nH]c3cc4c(cc23)CN([C@@H]2CCCN(Cc3c(F)cccc3F)C2)C(=O)N4)ccn1` [Compound 143] cannot be ordered by pIC50: over 7.30 for the first, over 7.30 for the second.

First: Cc1cc(-c2n[nH]c3cc4c(cc23)CN(C2CCN(Cc3ccccc3)CC2)C(=O)N4)ccn1 [Compound 70]
Second: Cc1cc(-c2n[nH]c3cc4c(cc23)CN(C2CN(CCc3ccccc3)C2)C(=O)N4)ccn1 [Compound 192]
The pIC50 of the first is higher: over 7.30 for the first, 6.60 to 7.30 for the second.

`Cc1cc(-c2n[nH]c3cc4c(cc23)CN([C@@H]2CCCN(Cc3ncccc3C)C2)C(=O)N4)ccn1` [Compound 168] and `Cc1cc(-c2n[nH]c3cc4c(cc23)CN([C@@H]2CCCN(Cc3cnn(C)c3)C2)C(=O)N4)ccn1` [Compound 133] cannot be ordered by pIC50: over 7.30 for the first, over 7.30 for the second.

`COc1ccc(-c2n[nH]c3cc4c(cc23)CN(Cc2ccc(F)cc2F)C(=O)N4)cn1` [Compound 87] and `COc1ncc(-c2n[nH]c3cc4c(cc23)CN(Cc2ccc(F)c(Cl)c2)C(=O)N4)cn1` [Compound 37] cannot be ordered by pIC50: over 7.30 for the first, over 7.30 for the second.

`Cc1cc(-c2n[nH]c3cc4c(cc23)CN(Cc2nccs2)C(=O)N4)ccn1` [Compound 56] and `Cc1cc(-c2n[nH]c3cc4c(cc23)CN(Cc2ccc(F)c(F)c2)C(=O)N4)ccn1` [Compound 13] cannot be ordered by pIC50: over 7.30 for the first, over 7.30 for the second.

First: O=C1Nc2cc3[nH]nc(Br)c3cc2CN1Cc1ccc(F)cc1 [Compound 29]
Second: O=C1Nc2cc3[nH]nc(-c4ccnnc4)c3cc2CN1Cc1cc(F)cc(F)c1 [Compound 127]
The pIC50 of the first is lower: 6.00 to 6.60 for the first, over 7.30 for the second.

`Cc1cc(-c2n[nH]c3cc4c(cc23)CN([C@@H]2CCCN(Cc3ccc(F)c(F)c3)C2)C(=O)N4)ccn1` [Compound 190] and `COc1cccc(F)c1CN1CCC[C@@H](N2Cc3cc4c(-c5ccnnc5)n[nH]c4cc3NC2=O)C1` [Compound 126] cannot be ordered by pIC50: over 7.30 for the first, over 7.30 for the second.

`O=C1Nc2cc3[nH]nc(-c4ccnnc4)c3cc2CN1[C@@H]1CCCN(Cc2ccccc2F)C1` [Compound 121] and `O=C1Nc2cc3[nH]nc(-c4ccnnc4)c3cc2CN1Cc1cccc(C(F)(F)F)c1` [Compound 124] cannot be ordered by pIC50: over 7.30 for the first, over 7.30 for the second.

Work on `Cc1cc(-c2n[nH]c3cc4c(cc23)CN([C@H](C)c2cccc(Cl)c2)C(=O)N4)ccn1` [Compound 35] yielded a pIC50 of over 7.30.

Same assay, conditions: In vitro, ERK2 enzyme 0.47 ng/μL, 100 μM ATP

`CC(c1ccccc1)c1cc2cc3c(-c4cnn(C)c4)n[nH]c3cc2[nH]c1=O` (stereo not drawn) [Compound 333] and `CC(c1ccccc1)c1cc2cc3c(-c4ccnc(N)c4)n[nH]c3cc2[nH]c1=O` (stereo not drawn) [Compound 344] cannot be ordered by pIC50: over 7.30 for the first, over 7.30 for the second.

Compared with `Cc1cc(-c2n[nH]c3cc4[nH]c(=O)c(C(CO)c5ccccc5)cc4cc23)ccn1` (stereo not drawn) [Compound 328], `Cc1cc(-c2n[nH]c3cc4[nH]c(=O)c([C@@H](C)c5ccc(F)cc5)cc4cc23)ccn1` [Compound 287] is lower in pIC50: over 7.30 for the first, 6.60 to 7.30 for the second. The first is the more potent here.

First: Cn1nccc1-c1n[nH]c2cc3c(cc12)CN([C@@H]1CN(CC(F)(F)F)C[C@H]1c1ccccc1)C(=O)N3 [Compound 350]
Second: Cn1cc(-c2n[nH]c3cc4c(cc23)CN([C@@H]2CN(CC(F)(F)F)C[C@H]2c2ccccc2)C(=O)N4)cn1 [Compound 352]
The pIC50 of the first is lower: 6.00 to 6.60 for the first, over 7.30 for the second.

First: Cc1cc(-c2n[nH]c3cc4c(cc23)CN([C@@H]2CCN(C(C)C)C2)C(=O)N4)ccn1 [Compound 268]
Second: Cc1cc(-c2n[nH]c3cc4c(cc23)CN([C@H]2CCN(CC(F)(F)F)C2)C(=O)N4)ccn1 [Compound 299]
The pIC50 of the first is lower: 6.60 to 7.30 for the first, over 7.30 for the second. The second is the more potent here.

`Cc1cc(-c2n[nH]c3cc4c(cc23)CN(Cc2ccccc2)C(=O)N4)cc(C)n1` [Compound 229] and `Cc1cc(-c2n[nH]c3cc4c(cc23)CN(Cc2ccc(C(F)(F)F)cc2)C(=O)N4)cc(C)n1` [Compound 233] cannot be ordered by pIC50: over 7.30 for the first, over 7.30 for the second.

`Cc1ncc(-c2n[nH]c3cc4c(cc23)CN([C@@H]2CCCN(Cc3ccc(F)cc3F)C2)C(=O)N4)cn1` [Compound 293] and `Cc1ncc(-c2n[nH]c3cc4c(cc23)CN([C@@H]2CCCN(Cc3ccccc3)C2)C(=O)N4)cn1` [Compound 292] cannot be ordered by pIC50: over 7.30 for the first, over 7.30 for the second.

Compared with `Cc1cc(-c2n[nH]c3cc4c(cc23)CN(CC2CCCN(Cc3ccccc3)C2)C(=O)N4)ccn1` (stereo not drawn) [Compound 208], `Cc1cc(-c2n[nH]c3cc4c(cc23)CN([C@H]2CCN(Cc3ccccc3)C2)C(=O)N4)ccn1` [Compound 301] is higher in pIC50: 6.60 to 7.30 for the first, over 7.30 for the second. The second is the more potent here.

First: COc1ncc(-c2n[nH]c3cc4c(cc23)CN([C@@H]2CCN(CC(F)(F)F)C2)C(=O)N4)cn1 [Compound 276]
Second: COc1ncc(-c2n[nH]c3cc4c(cc23)CN([C@H]2CCCN(Cc3ccccc3)C2)C(=O)N4)cn1 [Compound 365]
The pIC50 of the first is higher: over 7.30 for the first, 6.60 to 7.30 for the second.

`Cc1cc(-c2n[nH]c3cc4c(cc23)CN(Cc2cccc(C(F)(F)F)c2)C(=O)N4)ccn1` [Compound 240] and `Cc1cc(-c2n[nH]c3cc4c(cc23)CN(Cc2ccccc2C(F)(F)F)C(=O)N4)ccn1` [Compound 218] cannot be ordered by pIC50: over 7.30 for the first, over 7.30 for the second.

`C[C@H](c1ccccc1)c1cc2cc3c(NC4CCOCC4)n[nH]c3cc2[nH]c1=O` [Compound 357] and `CC(c1ccccc1)c1cc2cc3c(-c4ccnc(N5CCOCC5)c4)n[nH]c3cc2[nH]c1=O` (stereo not drawn) [Compound 325] cannot be ordered by pIC50: over 7.30 for the first, over 7.30 for the second.

`Cc1ncc(-c2n[nH]c3cc4c(cc23)CN([C@@H]2CN(CC(F)(F)F)C[C@H]2c2ccccc2)C(=O)N4)cn1` [Compound 349] and `O=C1Nc2cc3[nH]nc(-c4ccnnc4)c3cc2CN1[C@@H]1CN(CC(F)(F)F)C[C@H]1c1ccccc1` [Compound 340] cannot be ordered by pIC50: over 7.30 for the first, over 7.30 for the second.

`COc1ccc(-c2n[nH]c3cc4c(cc23)CN([C@@H]2CN(C)C[C@H]2c2ccccc2)C(=O)N4)cn1` (mixture of isomers) [Compound 353] and `Cc1cc(-c2n[nH]c3cc4c(cc23)CN([C@@H]2CN(C)C[C@H]2c2ccccc2)C(=O)N4)cc(C)n1` (racemic) [Compound 248] cannot be ordered by pIC50: over 7.30 for the first, over 7.30 for the second.

`Cc1cc(-c2n[nH]c3cc4c(cc23)CN([C@@H]2CCCN(Cc3ccc(F)s3)C2)C(=O)N4)ccn1` [Compound 290] and `Cc1cc(-c2n[nH]c3cc4c(cc23)CN([C@@H]2CCCN(Cc3sccc3F)C2)C(=O)N4)ccn1` [Compound 291] cannot be ordered by pIC50: over 7.30 for the first, over 7.30 for the second.

First: Cc1cc(-c2n[nH]c3cc4c(cc23)CN([C@@H]2CN(CC(F)(F)F)C[C@H]2C)C(=O)N4)ccn1 (racemic) [Compound 302]
Second: Cc1cc(-c2n[nH]c3cc4c(cc23)CN([C@@H]2CN(CC(F)(F)F)C[C@H]2C2CC2)C(=O)N4)ccn1 (mixture of isomers) [Compound 319]
The pIC50 of the first is higher: over 7.30 for the first, 6.60 to 7.30 for the second. The first is the more potent here.

First: Cc1cc(-c2n[nH]c3cc4c(cc23)CN([C@@H]2CN(CC(F)(F)F)C[C@H]2c2ccccc2F)C(=O)N4)ccn1 (racemic) [Compound 311]
Second: Cc1cc(-c2n[nH]c3cc4c(cc23)CN([C@@H]2CN(CCO)C[C@H]2c2ccccc2)C(=O)N4)ccn1 (mixture of isomers) [Compound 376]
The pIC50 of the first is lower: 6.60 to 7.30 for the first, over 7.30 for the second. The second is the more potent here.

First: Cc1cc(-c2n[nH]c3cc4c(cc23)CN([C@@H]2CCCN(Cc3csc(C)c3)C2)C(=O)N4)ccn1 [Compound 251]
Second: COc1ncc(-c2n[nH]c3cc4c(cc23)CN(C2CN(Cc3ccccc3)CC(F)(F)C2)C(=O)N4)cn1 (stereo not drawn) [Compound 320]
The pIC50 of the first is higher: over 7.30 for the first, 6.60 to 7.30 for the second.

From patent publication US9624228B2, “Inhibitors of ERK and methods of use” (KURA ONCOLOGY, INC., priority 2013, dated 2017)
